Article PMC10380726, “Cyanocobalamin-Modified Colistin–Hyaluronan Conjugates: Synthesis and Bioactivity” (International Journal of Molecular Sciences, 2023)

How the values were obtained:
P. aeruginosa ATCC 27853 = test: Antimicrobial activity, microtiter broth dilution method; type: cell-based, Pseudomonas aeruginosa; conditions: 1 × 10^7 CFU/mL, Mueller–Hinton broth, 24 h at 37 °C, OD 630 nm, concentration equivalent to CT
Description: The antimicrobial activity of HA–CT–B12 was tested using the microtiter broth dilution method, as previously reported. P. aeruginosa ATCC 27853 (Museum of Microbiological Cultures, State Research Institute of Highly Pure Biopreparations, St. Petersburg, Russia) was used as the experimental microorganism. Briefly, HA–CT–B12 conjugate stock solutions were prepared by diluting samples in Mueller–Hinton broth to a maximum 2-fold concentration equivalent to CT. Serial dilutions of CT (64 to 0.25 μg/mL) were then plated on Luria-Bertani agar culture plates. The antimicrobial efficacy of the HA–CT–B12 conjugates was confirmed by the absence of P. aeruginosa growth. P. aeruginosa suspension was serially diluted 1:100 in Müller–Hinton broth to obtain a concentration of approximately 1 × 10^7 CFU/mL. Then, 125 µL of the inoculum was added to the wells of the culture plate containing HA–CT–B12 solutions in Müller–Hinton broth. […] The plate was incubated for 24 h at 37 °C and the optical density (OD) was measured at 630 nm using an ELx808™ Absorbance Microplate Reader (BioTek Instruments, Winooski, VT, USA). Relative bacterial growth (%) was calculated as the ratio of OD630 at each concentration of the test samples to OD630 in the control (0 μg/mL). […]

Caco-2 cell monolayer = test: Caco-2 cell permeability assay; type: in vitro ADME, human
Description: The human colon adenocarcinoma cell line Caco-2 was obtained from the Russian Cell Culture Collection (Institute of Cytology, Russian Academy of Sciences, St. Petersburg, Russia). Caco-2 cells were cultured in DMEM medium supplemented with 10% FBS, L-glutamine, and penicillin/streptomycin in 75 cm^2 cell culture flasks (Jet Biofil, Guangzhou, China) at 37 °C in a humidified atmosphere containing 5% CO2 in a CO2 incubator. When the cells reached 60-70% confluence, the cells were sub-cultured into new flasks (1:6 ratio). […] Samples were collected from the bottom chamber and fluorescence intensity was measured using a fluorescence plate reader (excitation 492 nm; emission 520 nm). […] The content of vitamin B12 and the content of the HA-CT-B12 conjugate equivalent to vitamin B12 were determined spectrophotometrically at 360 nm using a calibration curve. […] The Papp was calculated using the following equation [33]:(1) […]0 where Papp is the apparent permeability coefficient (cm/s); dQ/dt -is the permeation rate (μg/s); A is the monolayer area (0.3 sm^2); and C0 is the concentration in the apical chamber at the initial moment of time (μg/mL).

## colistin [CT]
P. aeruginosa ATCC 27853
  Minimum inhibitory concentration (MIC): 2 µg/mL
Caco-2 cell monolayer; Caco-2
  Apparent permeability coefficient (Papp): 0.04 ×10⁻⁶ cm/s

## cyanocobalamin [vitamin B12]
Caco-2 cell monolayer; Caco-2 monolayer, day 21, apical to basolateral, PBS, 2 h with sampling every 30 min, 1 mg CT, 28.5 mg vitamin B12 or 300 mg conjugate in 5 mL PBS, 0.5 mL applied, B12 and conjugate read at 360 nm, mean of n = 3
  Apparent permeability coefficient (Papp): 5.4 ×10⁻⁶ cm/s
